For one assay, the system named is E. coli. The following applies: E. coli MMX 102 (ATCC 25922); cited from earlier work.
Assay [1] has as its system non-speciated Anaerococcus. As to the kind of experiment: MIC of baseline clinical isolates (Example 8). The assay is classed as cell-based. The following applies: Anaerococcus non-speciated baseline isolates (N′ = 1), central laboratory, mITT. The gist of the method:
(§1)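 MIC values refer to baseline organisms recovered on Day 1 from infected bone, involved peri-implant tissue and swabs of deep and superficial sites. Further samples were taken during any later operation on the same site.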

A further assay deals with Anaerococcus murdochii. In words: MIC of baseline clinical isolates (Example 8). The assay is classed as cell-based. The following applies: Anaerococcus murdochii baseline isolates (N′ = 1), central laboratory, mITT. A digest of the protocol:
as §1

The subject of another assay is S. aureus (MRSA, MSSA). In words: MIC of baseline clinical isolates (Example 8). The following applies: Staphylococcus aureus, MRSA baseline isolates (N′ = 4), central laboratory, mITT. Format: cell-based. A digest of the protocol:
as §1

A further assay concerns S. epidermidis. In words: MIC of baseline clinical isolates (Example 8). Format: cell-based. The following applies: Staphylococcus epidermidis baseline isolates (N′ = 5), central laboratory, mITT. A digest of the protocol: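 Isolates came from samples taken on Day 1 and at any later surgery at the index site: infected bone or tissue next to implants, deep infection-site swabs, and superficial tissue, wound closure or sinus tract. Local clinical laboratories analysed parallel sample sets to guide antibiotic treatment.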

Another assay relates to Clostridium sphenoides. As to the kind of experiment: MIC of baseline clinical isolates (Example 8). The following applies: Clostridium sphenoides baseline isolates (N′ = 1), central laboratory, mITT. Format: cell-based. The gist of the method: as §1
For the next assay, the system named is Staphylococcus hominis. As to the kind of experiment: MIC of baseline clinical isolates (Example 8). Format: cell-based. The following applies: Staphylococcus hominis baseline isolates (N′ = 1), central laboratory, mITT. A digest of the protocol:
as §1

Assay [2] has as its system P. aeruginosa and A. baumannii. As to the kind of experiment: MIC summary, P. aeruginosa and A. baumannii (Example 5). The following applies: all evaluated P. aeruginosa and A. baumannii isolates (Table 4); read-out: MIC values across isolates. The assay is classed as cell-based. As for the experimental part:
Test and Comparator Agents: The test agents were stored at room temperature until assayed. All test agents were suspended and diluted in 100% dimethylsulfoxide (DMSO), and were ultimately tested at a final concentration of 0.06-64 μg/mL. The stock solutions were allowed to stand for at least 1 hr prior to use to auto-sterilize.
TestMedia: Test media were prepared and stored in accordance with guidelines from CLSI (4, 6, 7). […] Neisseria gonorrhoeae were evaluated by agar dilution using agar consisting of GC medium base (BD; Lot No. 4274618) supplemented with 1% IsoVitaleX (BD; Lot No. 5246843).
Broth Microdilution MC Testing (Aerobic Bacteria and Yeast): The broth microdilution assay method employed for the susceptibility testing of aerobic bacteria (excluding N. gonorrhoeae which was evaluated by agar dilution) and yeast essentially followed the procedures described by CLSI (3, 4, 7, 8) and employed automated liquid handlers to conduct serial dilutions and liquid transfers. […]
Plates were stacked 4 high, covered with a lid on the top plate, placed into plastic bags, and incubated at 35° C. for approximately 24-48 hr for all yeast isolates and 16-24 hr for aerobic bacteria. […] MIC endpoints for the test agents and control compounds were read per CLSI criteria (3, 7).

The next assay has as its system A. baumannii. As to the kind of experiment: Broth microdilution MIC (Example 5). Format: cell-based, Acinetobacter baumannii. The following applies: Acinetobacter baumannii. As for the experimental part:
Test and Comparator Agents: The test agents were stored at room temperature until assayed. […] The stock solutions were allowed to stand for at least 1 hr prior to use to auto-sterilize.
TestMedia: Test media were prepared and stored in accordance with guidelines from CLSI (4, 6, 7).
Broth Microdilution MC Testing (Aerobic Bacteria and Yeast): The broth microdilution assay method employed for the susceptibility testing of aerobic bacteria (excluding N. gonorrhoeae which was evaluated by agar dilution) and yeast essentially followed the procedures described by CLSI (3, 4, 7, 8) and employed automated liquid handlers to conduct serial dilutions and liquid transfers. […] These would become the ‘mother plates’ from which ‘daughter’ or test plates would be prepared. The drugs (300 μL at 40× the desired top concentration in the test plates) were dispensed into the appropriate well in Column 1 of the mother plates. The Biomek 2000 was used to make serial two-fold dilutions through Column 11 in the “mother plate”. The wells of Column 12 contained no drug and ultimately served as the organism growth control wells.
The daughter plates were prepared using the Biomek FX which transferred 5 μL of drug solution from each well of a mother plate to the corresponding well of the correct daughter plate in a single step.
A standardized inoculum of each organism was prepared per CLSI methods (3, 7). Isolated colonies of each test isolate were picked from the primary plate and a suspension was prepared to equal a 0.5 McFarland turbidity standard. Standardized suspensions were then diluted […] (1:100 for yeast, 1:20 for bacteria). After dilution, the inoculum suspensions were then transferred to compartments of sterile reservoirs divided by length (Beckman Coulter), and the Biomek 2000 was used to inoculate all plates. Daughter plates were placed on the Biomek 2000 in reverse orientation so that plates were inoculated from low to high drug concentration.
The Biomek 2000 delivered 10 μL of standardized inoculum into each well of the appropriate daughter plate for an additional 1:20 dilution.
Plates were stacked 4 high, covered with a lid on the top plate, placed into plastic bags, and incubated at 35° C. for approximately 24-48 hr for all yeast isolates and 16-24 hr for aerobic bacteria. Plates were viewed from the bottom using a plate viewer. […] MIC endpoints for the test agents and control compounds were read per CLSI criteria (3, 7).

In a further assay the test system is N. gonorrhoeae. In words: microbe, parasite or virus in culture. The following applies: Neisseria gonorrhoeae.
The mark [3] stands for this setting: A. baumannii MMX 3373, Sensitive, read-out: MIC.
The mark [4] stands for this setting: ATCC49226, N. gonorrhoeae MMX 683 (ATCC 49226), QC.
The mark [5] stands for this setting: N. gonorrhoeae MMX 6757, CTX NS.
Where [6] appears, read: read-out: MIC values across isolates, N. gonorrhoeae isolates (Table 7).

Read-outs that look alike come from different tables or passages of the source.

For `CC(C)(O/N=C(\C(=O)N[C@@H]1C(=O)N2C(C(=O)[O-])=C(C[n+]3ccccc3)CS[C@H]12)c1csc(N)n1)C(=O)O` [Ceftazidime], the “CLSI QC range of MIC” value in the assay on E. coli is on record as “(0.06-0.5) μg/mL”.
On to `CCC[C@@H]1C[C@@H](C(=O)N[C@@H]([C@H]2O[C@H](SC)[C@H](O)[C@@H](O)[C@H]2O)[C@H](C)Cl)N(C)C1` [CLI], for which the “Mean MIC” value was 0.25 µg/mL in assay [1]; 8.00 µg/mL in the assay on Anaerococcus murdochii; 4.16 µg/mL in the assay on S. aureus (MRSA, MSSA); 3.66 µg/mL in the assay on S. epidermidis; 8.00 µg/mL in the assay on Clostridium sphenoides; 0.12 µg/mL in the assay on Staphylococcus hominis. In addition, the “n (% resistant)” value is 0 (0.0) n (%) in assay [1]; 1 (100.0) n (%) in the assay on Anaerococcus murdochii; 1 (25.0) n (%) with S. aureus (MRSA, MSSA); 1 (20.0) n (%) in the assay on S. epidermidis; 1 (100.0) n (%) in the assay on Clostridium sphenoides; 0 (0.0) n (%) in the assay on Staphylococcus hominis.
On to `OCC(S)CS.[Bi]` (stereo not shown) [MB-2B, bismuth-2,3-dimercaptopropanol], for which the MIC is 2 to 16 µg/mL in [2]; 16 µg/mL against A. baumannii (A. baumannii MMX 2592, MDR); 16 µg/mL against A. baumannii (A. baumannii MMX 2593, MDR); 16 µg/mL with A. baumannii (A. baumannii MMX 3372, MDR); 16 µg/mL in the assay on A. baumannii (setting [3]); 16 µg/mL against A. baumannii (NCTC13304, A. baumannii MMX 4651 (NCTC 13304), MDR, OXA-27). Besides, the MIC was 0.12 µg/mL against N. gonorrhoeae (setting [4]); 0.5 µg/mL against N. gonorrhoeae (setting [5]); 0.12 µg/mL in the assay on N. gonorrhoeae (N. gonorrhoeae MMX 6791, CIPR); 0.12 µg/mL in the assay with N. gonorrhoeae (N. gonorrhoeae MMX 6792, CIPR); 0.5 µg/mL with N. gonorrhoeae (N. gonorrhoeae MMX 6793, CIPR); 0.12 to 0.5 µg/mL with N. gonorrhoeae (setting [6]).
On to `CC(S)C(C)S.[Bi]` (stereo not shown) [MB-6, bismuth-2,3-butanedithiol], for which the MIC was 0.5 to 2 µg/mL in [2]; 0.5 µg/mL in the assay on A. baumannii (setting [3]); 0.06 µg/mL in the assay with N. gonorrhoeae (setting [4]); 0.06 µg/mL against N. gonorrhoeae (setting [5]); 0.12 µg/mL with N. gonorrhoeae (N. gonorrhoeae MMX 6791, CIPR); 0.12 µg/mL in the assay on N. gonorrhoeae (N. gonorrhoeae MMX 6792, CIPR). Besides, the MIC in the assay with N. gonorrhoeae (N. gonorrhoeae MMX 6793, CIPR) was 0.25 µg/mL; with N. gonorrhoeae (setting [6]), 0.06 to 0.25 µg/mL.
Regarding `C[C@H]1COc2c(N3CCN(C)CC3)c(F)cc3c(=O)c(C(=O)O)cn1c23` [Levofloxacin], the MIC in the assay with S. aureus (MRSA, MSSA) is 8 µg/mL; in the assay on S. epidermidis it was 2.52 µg/mL; in the assay on Staphylococcus hominis, 8 µg/mL. The “n (% resistant)” value in the assay on S. aureus (MRSA, MSSA) is reported as 4 (100.0) n (%); with S. epidermidis it was 2 (40.0) n (%); in the assay with Staphylococcus hominis, 1 (100.0) n (%).
In the case of `C[C@@H](O)[C@H]1C(=O)N2C(C(=O)O)=C(S[C@@H]3CN[C@H](C(=O)N(C)C)C3)[C@H](C)[C@H]12` [Meropenem], in the assay with E. coli, the “CLSI QC range of MIC” value was “(0.008-0.06) μg/mL”. Besides, the MIC in assay [1] turned out to be 0.25 µg/mL; in the assay on Anaerococcus murdochii, 0.06 µg/mL; in the assay on Clostridium sphenoides (Lacrimispora sphenoides), 2 µg/mL. For the same molecule, the “n (% resistant)” value (in assay [1]; in the assay with Anaerococcus murdochii; with Clostridium sphenoides) was 0 (0.0) n (%) each time.

Values taken from patent US20240285571A1, “METHODS OF TREATING BONE INFECTIONS” (MICROBION CORPORATION, priority 2020, published 2024).
